Measurements: PubChem BioAssay (NCI)
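Cells were grown in 96-well plates and exposed to each compound for 48 hours at five concentrations; endpoints were interpolated linearly between bracketing concentrations, or set to the highest concentration if not reached. At the TGI there is no net growth.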

Key:
Test in all cases: growth of human tumour cells (NCI), 48 h
[1] = test system: KM12 colon
[2] = test system: XF 498 CNS
[3] = test system: SNB-78 CNS
[4] = test system: SF-539 CNS
[5] = test system: K-562 leukemia
[6] = test system: UO-31 renal
[7] = test system: SN12C renal
[8] = test system: SK-MEL-5 melanoma
[9] = test system: RPMI-8226 leukemia
[10] = test system: UACC-62 melanoma
[11] = test system: LOX IMVI melanoma
[12] = test system: 786-0 renal
[13] = test system: M19-MEL melanoma
[14] = test system: A549 NSCLC
[15] = test system: SK-OV-3 ovarian
[16] = test system: M14 melanoma
[17] = test system: ACHN renal
[18] = test system: MOLT-4 leukemia
[19] = test system: TK-10 renal
[20] = test system: KM20L2 colon
[21] = test system: OVCAR-4 ovarian
[22] = test system: LXFL 529 NSCLC
[23] = test system: CCRF-CEM leukemia
[24] = test system: DMS 273 small cell lung
[25] = test system: HOP-62 NSCLC
[26] = test system: OVCAR-8 ovarian
[27] = test system: SW-620 colon
[28] = test system: SNB-19 CNS
[29] = test system: SF-268 CNS
[30] = test system: NCI-H522 lung
[31] = test system: RXF-631 renal
[32] = test system: IGROV1 ovarian
[33] = test system: OVCAR-5 ovarian
[34] = test system: UACC-257 melanoma
[35] = test system: NCI-H460 lung
[36] = test system: U251 CNS
[37] = test system: HOP-92 NSCLC
[38] = test system: MALME-3M melanoma
[39] = test system: HCC-2998 colon
[40] = test system: COLO 205 colon
[41] = test system: OVCAR-3 ovarian
[42] = test system: SF-295 CNS
[43] = test system: DLD-1 colon
[44] = test system: HCT-15 colon
[45] = test system: EKVX NSCLC
[46] = test system: A498 renal
[47] = test system: CAKI-1 renal
[48] = test system: HT29 colon
[49] = test system: NCI-H226 lung
[50] = test system: HL-60(TB) leukemia
[51] = test system: NCI-H23 lung
[52] = test system: HOP-18 NSCLC
[53] = test system: SNB-75 CNS
[54] = test system: HCT-116 colon
[55] = test system: SK-MEL-28 melanoma
[56] = test system: DMS 114 small cell lung

In the case of CCOC(=O)c1cc(/C=C/C(C)=C/C(=O)OC)n(C)c1C, the TGI [1] is reported as over 100 µM, the TGI [2] is reported as over 100 µM and the TGI [3] is reported as over 100 µM. It also gave a TGI [4] of over 100 µM, a TGI [5] of over 100 µM and a TGI [6] of over 100 µM. The TGI [7] was over 100 µM, the TGI [8] was over 100 µM and the TGI [9] was over 100 µM. It also gave a TGI [10] of over 100 µM, a TGI [11] of over 100 µM and a TGI [12] of over 100 µM. The TGI [13] was over 100 µM, the TGI [14] was over 100 µM and the TGI [15] was over 100 µM. It also gave a TGI [16] of over 100 µM, a TGI [17] of over 100 µM and a TGI [18] of over 100 µM. For the same molecule, the TGI [19] was over 100 µM, the TGI [20] was over 100 µM and the TGI [21] was over 100 µM. For the same molecule, the TGI [22] was over 100 µM, the TGI [23] was over 100 µM and the TGI [24] was over 100 µM. For the same molecule, the TGI [25] was over 100 µM, the TGI [26] was over 100 µM and the TGI [27] was over 100 µM. It also gave a TGI [28] of over 100 µM, a TGI [29] of over 100 µM and a TGI [30] of over 100 µM. It also gave a TGI [31] of over 100 µM, a TGI [32] of over 100 µM and a TGI [33] of over 100 µM. The TGI [34] was over 100 µM, the TGI [35] was over 100 µM and the TGI [36] was over 100 µM. It also gave a TGI [37] of over 100 µM, a TGI [38] of over 100 µM and a TGI [39] of over 100 µM. The TGI [40] was over 100 µM, the TGI [41] was over 100 µM and the TGI [42] was over 100 µM. It also gave a TGI [43] of over 100 µM, a TGI [44] of over 100 µM and a TGI [45] of over 100 µM. It also gave a TGI [46] of over 100 µM, a TGI [47] of over 100 µM and a TGI [48] of over 100 µM. The TGI [49] was over 100 µM, the TGI [50] was over 100 µM and the TGI [51] was over 100 µM.
CCOC(=O)CC1NC(=O)CS1 (centres undefined) showed a TGI [1] of over 100 µM, a TGI [3] of over 100 µM and a TGI [4] of over 100 µM. It also gave a TGI [5] of over 100 µM, a TGI [6] of over 100 µM and a TGI [7] of over 100 µM. It also gave a TGI [8] of over 100 µM, a TGI [9] of 60.1 µM and a TGI [10] of over 100 µM. The TGI [12] was over 100 µM, the TGI [13] was over 100 µM and the TGI [14] was over 100 µM. The TGI [15] was over 100 µM, the TGI [16] was over 100 µM and the TGI [17] was over 100 µM. It also gave a TGI [52] of over 100 µM, a TGI [18] of over 100 µM and a TGI [19] of over 100 µM. For the same molecule, the TGI [20] was over 100 µM, the TGI [53] was over 100 µM and the TGI [21] was over 100 µM. For the same molecule, the TGI [22] was over 100 µM, the TGI [23] was over 100 µM and the TGI [54] was 61.7 µM. For the same molecule, the TGI [24] was over 100 µM, the TGI [25] was over 100 µM and the TGI [26] was over 100 µM. The TGI [27] was 37.4 µM, the TGI [28] was over 100 µM and the TGI [29] was over 100 µM. It also gave a TGI [31] of over 100 µM, a TGI [55] of over 100 µM and a TGI [32] of over 100 µM. It also gave a TGI [33] of over 100 µM, a TGI [34] of over 100 µM and a TGI [35] of over 100 µM. The TGI [36] was over 100 µM, the TGI [37] was over 100 µM and the TGI [38] was over 100 µM. The TGI [39] was over 100 µM, the TGI [40] was 16.3 µM and the TGI [41] was over 100 µM. It also gave a TGI [42] of over 100 µM, a TGI [43] of over 100 µM and a TGI [44] of 45.1 µM. For the same molecule, the TGI [45] was over 100 µM, the TGI [46] was over 100 µM and the TGI [47] was over 100 µM. The TGI [48] was over 100 µM, the TGI [56] was 57.8 µM and the TGI [49] was 48.1 µM. The TGI [50] was over 100 µM and the TGI [51] was over 100 µM.
